“Also recorded” adds a separate entry of the source.
What was measured:
[1] = test system: cardiovascular calcifications; conditions: patients on hemodialysis, 1-year treatment; cited from earlier work
[2] = Profile of (I a) compared to pyrophosphate and bisphosphonates
[3] = test system: Abcc6−/− mice (mouse model of PXE); test: Prevention study: histologic (von Kossa) evaluation of vibrissae calcification in muzzle skin; type: in vivo; conditions: for calcification in the dermal sheath of vibrissae in muzzle skin (von Kossa) / inhibition of ectopic calcification: osmotic pump
Procedure: (§1) Abcc6^−/− knock-out mice (Abcc6^−/−) on C57BL/6J background were generated as described previously (J. F. Klement et al., Mol Cell Biol 2005, 25, 8299). C57BL/6J mice from The Jackson Laboratory (Bar Harbor, ME) were used as wild-type controls (WT). In prevention study, 6-week-old Abcc6^−/− mice were administered with (I a) by periodic subcutaneous injections or continuous administration via subcutaneous ALZET osmotic pump model 2006 (DURECT Corp, Cupertino, CA) for duration of 6 weeks. In reversal study, 12-week-old Abcc6^−/− mice were administered (I a) at 4 mg/kg/day via osmotic pumps for 12 weeks. All mice were maintained on a standard diet and sacrificed at 12 weeks of age, 6 weeks after initiation of treatment (prevention study), or at 24 weeks of age, 12 weeks after initiation of treatment (reversal study). All protocols were approved by the Institutional Animal Care and Use Committee of Thomas Jefferson University.
(§2) Muzzle skin biopsies (left side) from euthanized mice were collected and fixed in 10% phosphate-buffered formalin and embedded in paraffin. Paraffin sections (6 μm) were stained with Hematoxylin and Eosin or von Kossa using standard procedures. To quantify the mineral deposition, muzzle skin biopsies (right side) were harvested and decalcified with 1.0 M HCl for 48 hours at room temperature. Solubilized calcium was then determined by a colorimetric assay (J. Huang et al., J Invest Dermatol 2019, 139, 1254; Q. Li, J. Huang et al., J Invest Dermatol 2019, 139, 360). The values were normalized to tissue weight. Whole blood was collected by retro-orbital bleeding or cardiac puncture. For subcutaneously injected mice, whole blood was collected 30 minutes after injection of (I a). Whole blood was collected at 2 days, 3 weeks, and 6 weeks after treatment initiation in mice receiving (I a). The concentrations of (I a) in heparin plasma were analyzed on an ultra-fast liquid chromatography, as described previously (A. E. Schantl et al., Nat Commun 2020, 11, 721). The data was analyzed using Kruskal-Wallis nonparametric test.
The Abcc6^−/− mice were administered (I a) by subcutaneous implantation of osmotic pumps at doses of 0.16, 0.8, 4, 20, and 100 mg/kg/day. The untreated wild-type and Abcc6^−/− mice served as negative and positive controls of ectopic calcification. Treatment was initiated at 6 weeks of age, a time point at the earliest stages of ectopic calcification in the Abcc6^−/− mice. The extent of ectopic calcification after 6 weeks of treatment was analyzed by two independent assays measuring calcification in the dermal sheath of vibrissae in muzzle skin, an early and reliable biomarker in this mouse model of PXE. One piece of muzzle skin was processed for semi-quantitative histological evaluation. […] The therapeutic effects of (I a) were substantiated by the calcium content in another muzzle skin biopsy measured using a quantitative chemical assay (FIG. 2A).
The inventors next examined whether periodic, bolus subcutaneous injections of (I a) at the same dose of 4 mg/kg/day, would have similar therapeutic benefits. Six-week-old Abcc6^−/− mice were administered (I a) by subcutaneous injections three times per week corresponding to 4 mg/kg/day. […] Thus, subcutaneous injection of (I a) is effective, albeit less than with continuous delivery at the same dose of 4 mg/kg/day on inhibition of ectopic calcification.
Three additional dose levels of (I a) at weekly subcutaneous injections for a duration of 6 weeks were tested to evaluate the inhibitory effects of (I a) (FIG. 1A). […] The semi-quantitative histologic evaluations of (I a) treatment were consistent with the calcium contents in the muzzle skin measured by a chemical assay (FIG. 2A).

[4] = subcutaneous administration, Sprague Dawley rats; cited from earlier work
[5] = test system: Abcc6−/− mice (mouse model of PXE); test: Prevention study: quantitative chemical calcium assay of muzzle skin biopsies; type: in vivo; conditions: 6 weeks
Procedure: as §1
(§3) Muzzle skin biopsies (left side) from euthanized mice were collected and fixed in 10% phosphate-buffered formalin and embedded in paraffin. […] To quantify the mineral deposition, muzzle skin biopsies (right side) were harvested and decalcified with 1.0 M HCl for 48 hours at room temperature. Solubilized calcium was then determined by a colorimetric assay (J. Huang et al., J Invest Dermatol 2019, 139, 1254; Q. Li, J. Huang et al., J Invest Dermatol 2019, 139, 360). […] The concentrations of (I a) in heparin plasma were analyzed on an ultra-fast liquid chromatography, as described previously (A. E. Schantl et al., Nat Commun 2020, 11, 721). The data was analyzed using Kruskal-Wallis nonparametric test.
The Abcc6^−/− mice were administered (I a) by subcutaneous implantation of osmotic pumps at doses of 0.16, 0.8, 4, 20, and 100 mg/kg/day. […] The extent of ectopic calcification after 6 weeks of treatment was analyzed by two independent assays measuring calcification in the dermal sheath of vibrissae in muzzle skin, an early and reliable biomarker in this mouse model of PXE. One piece of muzzle skin was processed for semi-quantitative histological evaluation. […]

[6] = test system: Abcc6−/− mice (mouse model of PXE); test: Treatment (reversal) study: histopathology and calcium assay of muzzle skin in old mice; type: in vivo; conditions: 12-week-old mice, osmotic pump 4 mg/kg/day for 12 weeks, analysed at 24 weeks of age
Procedure: as §1, with “All mice were maintained on a standard diet and sacrificed at 12 weeks of age, 6 weeks after initiation of treatment (prevention study), or at 24 weeks of age, 12 weeks after initiation of treatment (reversal study). All protocols were approved by the Institutional Animal Care and Use Committee of Thomas Jefferson University.” left out
as §3, with “test. […]” for “test.”

[7] = Plasma concentrations of (I a) in treated Abcc6−/− mice; type: in vivo, mouse
Procedure: as §2
(I a) was undetectable in plasma of untreated Abcc6^−/− mice.
The Tmax of (I a) in plasma after subcutaneous administration in Sprague Dawley rats was reported to be about 30 minutes after injection, the inventors therefore measured (I a) concentrations in plasma 30 minutes after injection in the Abcc6^−/− mice.

O=P(O)(O)O[C@H]1[C@H](OP(=O)(O)O)[C@@H](OP(=O)(O)O)[C@H](OP(=O)(O)O)[C@@H](OP(=O)(O)O)[C@H]1OP(=O)(O)O [IP6]
progression of cardiovascular calcifications [1]: stop the progression, albeit without regression

COCCOCCOC1C(OP(=O)(O)O)C(OCCOCCOC)C(OP(=O)(O)O)C(OP(=O)(O)O)C1OP(=O)(O)O (centres unmarked) [(I a), bis-oligoethylene myo-inositol tetrakisphosphate]
anti-osteoclastic activity [2]: no anti-osteoclastic activity | local tolerability [2]: good | subcutaneous bioavailability [2]: high | calcification in the dermal sheath of vibrissae in muzzle skin (von Kossa) ([3]; 0.16 mg/kg/day, 6 weeks): no effects | calcification in the dermal sheath of vibrissae in muzzle skin (von Kossa) ([3]; 0.8 mg/kg/day, 6 weeks): evident but significantly reduced calcification | calcification in the dermal sheath of vibrissae in muzzle skin (von Kossa) ([3]; 4 mg/kg/day (and above), 6 weeks, from 6 weeks of age, 4 mg/kg/day): very little, if any, calcification; also recorded: little, if any, calcification; also recorded: completely prevented ectopic calcification; also recorded: complete response | inhibition of ectopic calcification ([3]; 4 mg/kg/day, 6 weeks): ~100% | inhibition of ectopic calcification ([3]; 100 mg/kg/day, 6 weeks): ~100% | calcification, subcutaneous injections overall ([3]; subcutaneous injections at different doses and frequencies (thrice weekly and once weekly)): decreased calcification; also recorded: prevented calcification | calcification in the muzzle skin (histology) ([3]; subcutaneous injections three times per week corresponding to 4 mg/kg/day, 6 weeks): significantly reduced calcification | ectopic calcification in the muzzle skin (histology) ([3]; weekly subcutaneous injection, 0.8 mg/kg/day, 6 weeks): significantly reduced ectopic calcification | calcification in the muzzle skin (histology) ([3]; weekly subcutaneous injection, 4 mg/kg/day, 6 weeks): significantly reduced calcification | Tmax in plasma [4]: about 30 minutes | minimum active dose / minimum effective dose ([5]; continuous osmotic pump administration): 0.8 mg/kg/day | inhibition of ectopic calcification by calcium assay ([5]; osmotic pump, 0.8 mg/kg/day): 59% | inhibition of ectopic calcification by calcium assay ([5]; subcutaneous injections three times per week corresponding to 4 mg/kg/day): 63% | degree of ectopic calcification in muzzle skin after treatment [6]: prevented further calcification; also recorded: calcification similar to 12-week-old Abcc6^−/− control mice; also recorded: stabilized existing calcification | degree of ectopic calcification in muzzle skin after treatment ([6]; listed as INS-3001): stabilize existing calcification | plasma levels over time ([7]; 2 days, 3 weeks and 6 weeks after implantation of the osmotic pump): remained largely constant; also recorded: largely consistent during treatment | plasma levels 30 minutes after subcutaneous injection ([7]; bolus subcutaneous injection versus pump administered groups): much higher than that in the pump administered groups | plasma concentrations versus dose, all groups ([7]; osmotic pump (prior to sacrifice) or 30 minutes after subcutaneous injection): scaled relatively well with the dose administered | plasma concentrations versus dose ([7]; osmotic pump, 0.16 to 100 mg/kg/day): dose-dependent
